Several values for one entry are separate records, joined by “and”; a condition that tells them apart may be missing. Identical values can stand only once. ± gives the expanded uncertainty stated by the source.

For data set [1] the following is noted: 298.2 K; 101.33 kPa; Liquid; Vibrating tube method.
The nature of data set [2]: refractive index (Na D-line) (dimensionless). The note with it: 298.2 K; 101.33 kPa; Liquid; Standard Abbe refractometry.
Data set [3] in a line: refractive index (Na D-line) (dimensionless); wn = mass fraction of the nth substance listed. To be noted: 298.2 K, 81.5 kPa, Liquid, Standard Abbe refractometry.

For orientation: mass density means the mass of a sample divided by its volume. What is called refractive index is a measure of how strongly the sample bends light. For the molecule `CC(C)c1ccccc1` [isopropylbenzene], the mass density in data set [1] was 857.54 ± 1.7 kg/m3. Further, the refractive index in data set [2] is given as 1.49005 ± 0.0014.

On to `CC(C)c1ccccc1` [isopropylbenzene] + O, for which the refractive index in data set [3] (w2 = 0.0006) was 1.48845 ± 0.0014; in data set [3] (w2 = 0.0008) it was 1.48875 ± 0.0014 and 1.48855 ± 0.0014; in data set [3] (w2 = 0.0009), 1.49001 ± 0.0014; in data set [3] (w2 = 0.001), 1.4885 ± 0.0014; in data set [3] (w2 = 0.0016) it was 1.48855 ± 0.0014; in data set [3] (w2 = 0.9996) it was 1.333 ± 0.0014.

In the case of `O` [water], in data set [2], the refractive index is recorded as 1.3325 ± 0.0014.

Values taken from the NIST ThermoML archive (doi:10.1021/acs.jced.8b01202).
